# Assay results reported in PMC8694140, “Synthesis and photobiological applications of naphthalimide–benzothiazole conjugates: cytotoxicity and topoisomerase IIα inhibition” (RSC Advances, 2021).
# How the values were obtained:
# [1] = test system: A549 (lung) human cancer cell line; test: MTT cytotoxicity assay, A549; type: cell-based
# Description: (§1) Human malignant cell lines, i.e., MCF7 (breast), HeLa (cervix), and A549 (lung), as well as non-cancerous human cell line Hek293 (kidney), were cultured using the Ham's media or DMEM having 10% FBS, […] streptomycin, 100 U ml^−1 penicillin, and 50 mM glutamine. For seeding of cells, 96 well plates were used, maintaining the density of […] cells per well with the help of DMEM as a media having 10% FBS cells. Then, seeded cells were incubated in an incubator having a 5% CO2 supply at 37 °C. Compounds were added to the wells at 1, 10, and 100 μM concentrations, and cells were incubated for 48 h at 37 °C and then added 10 μl of MTT to each well prepared from 5 mg ml^−1 stock solution using 1 × PBS buffer and were incubated for 4 h at 37 °C in the dark. DMSO (100 μl) was used to dissolve the formazan crystals. To determine the concentration of formazan, the crystal absorbance difference was recorded at 570 nm. The percentage of relative cell toxicity was calculated by using the following eqn (1):1 [drawing 1]
# [2] = test system: MCF7 (breast) human cancer cell line; test: MTT cytotoxicity assay, MCF7; type: cell-based
# Description: as §1
# [3] = test system: HeLa (cervix) human cancer cell line; test: MTT cytotoxicity assay, HeLa; type: cell-based; conditions: 48 h
# Description: as §1
# [4] = test system: Hek293 (kidney) human noncancerous cell line; test: MTT cytotoxicity assay, normal cells Hek293; type: cell-based; conditions: read-out: growth inhibition of Hek293
# Description: To evaluate the safety, the cytotoxic effect of all compounds (7–22) against Hek293 (kidney) human noncancerous cell line was also evaluated using a colorimetric assay (MTT assay) at the concentration level of 10 μM.
# as §1
Compound,melting point [°C],IC50 ([1]; 48 h) [µM],IC50 ([2]; 48 h) [µM],IC50 [3] [µM],"IC50 ([1]; Homo sapiens, A549, 48 h) [µM]","IC50 ([2]; Homo sapiens, MCF7, 48 h) [µM]",IC50 ([3]; Homo sapiens) [µM],inhibition at 10 µM [4] [%]
"6-(3-(Benzo[d]thiazol-2-yl)-1-propyl-1H-indol-5-yl)-2-(4-fluorophenyl)-1H-benzo[de]isoquinoline-1,3(2H)-dione [Compound 21]",–,0.63 ± 0.08,4.1 ± 0.23,3.96 ± 0.16,–,–,–,–
"C=CCn1cc(-c2nc3ccccc3s2)c2cc(-c3ccc4c5c(cccc35)C(=O)OC4=O)ccc21 [Compound 7, 6-(1-Allyl-3-(benzo[d]thiazol-2-yl)-1H-indol-5-yl)-1H,3H-benzo[de]isochromene-1,3-dione]",255 to 258,–,–,–,0.45 ± 0.04,6.94 ± 0.16,7.18 ± 0.28,–
"C=CCn1cc(-c2nc3ccccc3s2)c2cc(-c3ccc4c5c(cccc35)C(=O)N(CCN)C4=O)ccc21 [Compound 9, 6-(1-Allyl-3-(benzo[d]thiazol-2-yl)-1H-indol-5-yl)-2-(2-aminoethyl)-1H-benzo[de]isoquinoline-1,3(2H)-dione]",–,–,–,–,3.06 ± 0.13,4.17 ± 0.13,4.02 ± 0.18,17
"C=CCN1C(=O)c2cccc3c(-c4ccc5c(c4)c(-c4nc6ccccc6s4)cn5CC=C)ccc(c23)C1=O [Compound 15, 2-Allyl-6-(1-allyl-3-(benzo[d]thiazol-2-yl)-1H-indol-5-yl)-1H-benzo[de]isoquinoline-1,3(2H)-dione]",–,–,–,–,1.89 ± 0.15,0.38 ± 0.06,2.71 ± 0.09,–
"C=CCn1cc(-c2nc3ccccc3s2)c2cc(-c3ccc4c5c(cccc35)C(=O)N(Cc3ccccc3)C4=O)ccc21 [Compound 17, 6-(1-Allyl-3-(benzo[d]thiazol-2-yl)-1H-indol-5-yl)-2-benzyl-1H-benzo[de]isoquinoline-1,3(2H)-dione]",281 to 284,–,–,–,2.01 ± 0.09,4.39 ± 0.23,4.17 ± 0.21,–
"C=CCn1cc(-c2nc3ccccc3s2)c2cc(-c3ccc4c5c(cccc35)C(=O)N(Nc3ccccc3)C4=O)ccc21 [Compound 18, 6-(1-Allyl-3-(benzo[d]thiazol-2-yl)-1H-indol-5-yl)-2-(phenylamino)-1H-benzo[de]isoquinoline-1,3(2H)-dione]",–,–,–,–,0.96 ± 0.12,3.58 ± 0.14,3.96 ± 0.2,–
"CCCn1cc(-c2nc3ccccc3s2)c2cc(-c3ccc4c5c(cccc35)C(=O)N(N)C4=O)ccc21 [Compound 22, 2-Amino-6-(3-(benzo[d]thiazol-2-yl)-1-propyl-1H-indol-5-yl)-1H-benzo[de]isoquinoline-1,3(2H)-dione]",–,–,–,–,0.84 ± 0.07,5.84 ± 0.28,8.59 ± 0.28,–
"COc1cc([C@@H]2c3cc4c(cc3[C@@H](O[C@@H]3O[C@@H]5CO[C@@H](C)O[C@H]5[C@H](O)[C@H]3O)[C@H]3COC(=O)[C@H]23)OCO4)cc(OC)c1O [Etoposide, reference compound]",–,–,–,–,0.1 ± 0.02,0.33 ± 0.13,1.89 ± 0.19,–

# Now from value to compound, other results behind:
melting point [°C],Compound,IC50 ([1]; 48 h) [µM],IC50 ([2]; 48 h) [µM],IC50 [3] [µM],"IC50 ([1]; Homo sapiens, A549, 48 h) [µM]","IC50 ([2]; Homo sapiens, MCF7, 48 h) [µM]",IC50 ([3]; Homo sapiens) [µM],inhibition at 10 µM [4] [%]
277 to 280,"C=CCn1cc(-c2nc3ccccc3s2)c2cc(-c3ccc4c5c(cccc35)C(=O)N(CCCC)C4=O)ccc21 [Compound 8, 6-(1-Allyl-3-(benzo[d]thiazol-2-yl)-1H-indol-5-yl)-2-butyl-1H-benzo[de]isoquinoline-1,3(2H)-dione]",–,–,–,1.19 ± 0.11,7.69 ± 0.2,5.52 ± 0.15,–
274 to 277,"C=CCn1cc(-c2nc3ccccc3s2)c2cc(-c3ccc4c5c(cccc35)C(=O)N(CCN(C)C)C4=O)ccc21 [Compound 10, 6-(1-Allyl-3-(benzo[d]thiazol-2-yl)-1H-indol-5-yl)-2-(2-(dimethylamino)ethyl)-1H-benzo[de] isoquinoline-1,3(2H)-dione]",–,–,–,1.02 ± 0.08,3.31 ± 0.11,3.4 ± 0.13,–
281 to 284,"C=CCn1cc(-c2nc3ccccc3s2)c2cc(-c3ccc4c5c(cccc35)C(=O)N(CCN(CC)CC)C4=O)ccc21 [Compound 11, 6-(1-Allyl-3-(benzo[d]thiazol-2-yl)-1H-indol-5-yl)-2-(2-(diethylamino)ethyl)-1H-benzo[de] isoquinoline-1,3(2H)-dione]",–,–,–,0.81 ± 0.05,3.57 ± 0.21,3.07 ± 0.17,~2
285 to 288,"C=CCn1cc(-c2nc3ccccc3s2)c2cc(-c3ccc4c5c(cccc35)C(=O)N(CCN3CCOCC3)C4=O)ccc21 [Compound 14, 6-(1-Allyl-3-(benzo[d]thiazol-2-yl)-1H-indol-5-yl)-2-(2-morpholinoethyl)-1H-benzo[de]isoquinoline-1,3(2H)-dione]",–,–,–,1.11 ± 0.06,3.69 ± 0.09,3.93 ± 0.11,–
277 to 280,"C=CCn1cc(-c2nc3ccccc3s2)c2cc(-c3ccc4c5c(cccc35)C(=O)NC4=O)ccc21 [Compound 16, 6-(1-Allyl-3-(benzo[d]thiazol-2-yl)-1H-indol-5-yl)-1H-benzo[de]isoquinoline-1,3(2H)-dione]",–,–,–,1.91 ± 0.1,3.57 ± 0.08,3.61 ± 0.19,–
285 to 288,"C=CCn1cc(-c2nc3ccccc3s2)c2cc(-c3ccc4c5c(cccc35)C(=O)N(C3CCCCC3)C4=O)ccc21 [Compound 19, 6-(1-Allyl-3-(benzo[d]thiazol-2-yl)-1H-indol-5-yl)-2-cyclohexyl-1H-benzo[de]isoquinoline-1,3(2H)-dione]",–,–,–,1.47 ± 0.12,1.65 ± 0.11,3.33 ± 0.11,–
294 to 297,"C=CCn1cc(-c2nc3ccccc3s2)c2cc(-c3ccc4c5c(cccc35)C(=O)N(CCN3CCNCC3)C4=O)ccc21 [Compound 20, 6-(1-Allyl-3-(benzo[d]thiazol-2-yl)-1H-indol-5-yl)-2-(2-(piperazin-1-yl)ethyl)-1H-benzo[de] isoquinoline-1,3(2H)-dione]",–,–,–,0.76 ± 0.04,3.35 ± 0.16,3.45 ± 0.13,18
